# “And” between values parts separate entries of the source, which are not always exact repeats. Equal values may be shown once. “Also recorded” adds a separate entry of the source.
# Legend:
# [1] = system: adhesions of the uterus; assay: Standard rabbit adhesion procedure (uterine horn abrasion), Example 3; assay type: in vivo, New Zealand white rabbits; settings: for Extent of Uterus Covered: median percent involvement score 0-4 (IQR); for Extent of Uterus Covered / Total score / Adhesion Free Rabbits: 10 mg/kg daily for ten days; for Extent of Uterus Covered / Total score: p=0.003; for Total score: median total adhesion score (IQR); for Adhesion Free Rabbits: number of rabbits out of N = 8 surviving
# Method: Twenty female New Zealand white rabbits underwent a standard rabbit adhesion procedure. The uterus and its bilateral horns were eviscerated, and abraded with the scalpel until punctate hemorrhages appeared. Collateral blood supply in the right mesosalpinx was tied off with 5-0 silk ties. The uterus was then returned to normal anatomic position. One day prior to surgery, the rabbits were randomly assigned to be treated with sunitinib at a dose of 10 mg/kg or saline control via orogastric gavage. Both groups were treated daily for a total of ten days. On postoperative day ten, the rabbits were sacrificed and their adhesions were scored by two observers who were blinded to their treatments. Adhesions are graded based on their tenacity (0=no adhesions, 1=adhesions fall apart, 2=adhesions lysed by traction, 3=adhesions lysed with blunt dissection, 4=adhesions lysed with sharp dissection) and the percent of uterus involved (0=none, 1=<25%, 2=25-50%, 3=51-75%, 4=>75%).
# [2] = system: intra-abdominal adhesion formation; assay: Standard mouse adhesion model (cecal abrasion, silicone patch), Example 2, sacrifice on postoperative day 10 or 30; assay type: in vivo, C57BLJ6 mice; settings: for Median cecal: median cecal adhesion score 0-4 (IQR); for Median extent / Median tenacity: median score 0-4 (IQR); for Total score: total median adhesion score 0-12 (IQR); for intra-abdominal adhesion formation compared with control: FIG. 1, FIG. 2; for long-term intra-abdominal adhesion formation compared with control: FIG. 3
# Method: Thirty-seven 6- to 8-wk old C57BLJ6 mice (The Jackson Laboratory, Bar Harbor, Me.) were housed in cages of five mice with food and water ad libitum. The mice were acclimated to the facility for at least 72 h prior to surgery. A standard mouse adhesion model was performed as previously described (Chiang S C., et al (2000) J Pediatr Surg 35:189). After the mice were anesthetized with inhaled isoflurane, a midline incision was made, the cecum was eviscerated, rubbed gently with two cotton swabs, and then returned to anatomical position. A silicone patch (5.0×5.0×0.127 mm) (Bentec Medical, Woodland, Calif.) was sutured to the right abdominal wall, lateral to the epigastric vessels, with 7-0 nylon. One day prior to surgery, the mice were randomly treated with sunitinib (40 mg/kg in 100 methylcellulose) or methylcellulose control (100 uL). This dose was selected based on previous studies (Morimoto A M., (2004) Oncogene 23:1618; Takahashi H., et al (2006) J Ocul Pharmacol Ther 22:213; Pietras K., et al (2005) J Clin Ocol 23:939) Both groups were treated daily by orogastric gavage at the same dose for 10 days. On postoperative day 10, the mice were sacrificed and adhesions were scored by an observer who was blinded to the treatment groups, based on a previously described scoring system (Chiang S C., et al (2000), supra). The experiment was then repeated with sacrifice on postoperative day 30. The adhesion score was based on the extent of the patch covered by adhesions, the tenacity of adhesions to the patch, and the strength of cecal adhesions. Each criterion was scored from 0-4 and the sum of the three scores was the final adhesion score. The lowest and highest possible scores were 0 and 12, respectively. The tenacity of the adhesions to the patch was scored: 0=none, 1=adhesions fell apart, 2=lysed with traction, 3=lysed with blunt dissection, 4=lysed with sharp dissection. The extent of the patch covered was scored: 0=0%, 1=<25%, 2=25% to 50%, 3=50% to 75%, 4=>75%. The tenacity of cecal adhesions was scored: 0=none, 1=adhesions fell apart, 2=lysed with traction, 3=lysed with blunt dissection, 4=lysed with sharp dissection. Statistical analysis of adhesion scores was conducted using the Mann-Whitney rank sum test. The conventional 2-tailed P-value of 0.05 was used to establish significance. The results are presented as median adhesion score and interquartile range (IQR: 25th-75th percentile). The statistical program used was SigmaStat (SPSS, Chicago, Ill.).
# [3] = system: adhesion formation; assay: Mouse adhesion model (silicone patch on abdominal wall, cecal abrasion), Example 1; assay type: in vivo, C57BL/6 mice
# Method: Ten 7 week old male C57BL/6 mice were anesthetized with isoflurane and a midline laparotomy was performed. A 5.0 mm×5.0 mm piece of sterile silicone was attached to the right abdominal wall with 7.0 prolene sutures. The cecum then was gently rubbed with 2 cotton swabs to promote adhesion formation.
# Two groups of 5 mice were treated with either 40 mg/kg/day of sunitinib in methylcellulose or methyl cellulose alone beginning the day before the adhesion operation and administered daily for 10 days. After 10 days of treatment, the animals were anesthetized with avertin, sacrificed, and the adhesions were scored.
# The total adhesion score was the sum of the 3 individual scores. A minimum score was 0 and the maximum score was 12. Tenacity was rated as none (0), adhesions fell apart (1), lysed with traction (2), lysed with blunt dissection (3), and lysed with sharp dissection (4). Extent was measured as the percent of the patch covered by adhesion: 0% (0), <25% (1), 25 to 50% (2), 50 to 75% (3), and >75% (4). Cecal adhesions were graded as none (0), adhesions fell apart (1), lysed with traction (2), lysed with blunt dissection (3), and lysed with sharp dissection (4). The differences between the treated and untreated groups were significant (P=0.021).
# [4] = postoperative day ten, N = 8, 10 mg/kg
# [5] = postoperative day ten, N = 8, listed as Sunitinib + saline, 10 mg/kg
# [6] = long-term, postoperative day 30, treated 10 d, n = 10, P=0.049
# [7] = long-term, postoperative day 30, treated 10 d, n = 10, P=0.049, listed as sunitinib
smiles,measurement,setting,value
"CCN(CC)CCNC(=O)c1c(C)[nH]c(/C=C2\C(=O)Nc3ccc(F)cc32)c1C [Sunitinib, sunitinib malate]",abdominal cavity adhesions in micrograph,"[1]; FIG. 4, treated rabbit",free from abdominal cavity adhesions
same,Extent of Uterus Covered,[1]; [4],1.0 (IQR 0-1.0; range 0-1)
same,Extent of Uterus Covered,[1]; [5],1.0
same,Tenacity to Uterus,"[1]; median score 0-4 (IQR), 10 mg/kg daily orogastric gavage for ten days from day prior to surgery, postoperative day ten, N = 8, p=0.004, listed as Sunitinib + saline, 10 mg/kg",1.0
same,Total score,[1]; [4],2 (IQR 0-2.75; range 0-3)
same,Total score,[1]; [5],2.0
same,Adhesion Free Rabbits,"[1]; postoperative day ten, 10 mg/kg",Three of the eight
same,Adhesion Free Rabbits,"[1]; postoperative day ten, listed as Sunitinib + saline, 10 mg/kg",3
same,Median cecal,"[2]; long-term, postoperative day 30, treated 10 d, n = 10, P=0.225",0 (IQR 0-2.0)
same,Median cecal,"[2]; long-term, postoperative day 30, treated 10 d, n = 10, P=0.225, listed as sunitinib",0.0 (IQR 0-2.0)
same,Median extent,[2]; [6],0 (IQR 0-1.0)
same,Median extent,[2]; [7],0.0 (IQR 0-1.0)
same,Median tenacity,"[2]; long-term, postoperative day 30, treated 10 d from day prior to surgery, n = 10, P=0.011",0 (IQR 0-0.5)
same,Median tenacity,"[2]; long-term, postoperative day 30, treated 10 d from day prior to surgery, n = 10, P=0.011, listed as sunitinib",0.0 (IQR 0.0-0.5)
same,Adhesion free mice,"[2]; long-term, postoperative day 30, number of mice out of n = 10",6
same,mice completely adhesion-free,"[2]; long-term, postoperative day 30, six of 10 mice",60%
same,Total score,[2]; [6],0 (IQR 0-3.0)
same,Total score,[2]; [7],0.0 (IQR 0.0-3.0)
same,intra-abdominal adhesion formation compared with control,"[2]; postoperative day 10, P=0.002",significantly decreased
same,intra-abdominal adhesion formation compared with control,"[2]; postoperative day 10, P=0.002, listed as sunitinib",adhesion free; also recorded: significantly decreased
same,Median cecal,"[2]; postoperative day 10, 40 mg/kg daily gavage for 10 days, n = 18, P=0.002",2.0 (IQR 0-2.0)
same,Median extent,"[2]; postoperative day 10, 40 mg/kg daily gavage for 10 days, n = 18, P vs control 0.091 (Table 3), 0.91, 40 mg/kg",0 (IQR 0-2.0)
same,Median extent,"[2]; postoperative day 10, 40 mg/kg daily gavage for 10 days, n = 18, P vs control 0.091 (Table 3), 0.91, listed as sunitinib, 40 mg/kg",0.0 (IQR 0-2.0)
same,Median tenacity,"[2]; postoperative day 10, 40 mg/kg daily orogastric gavage for 10 days, n = 18, P vs control 0.068 (Table 3), 0.68, 40 mg/kg",0 (IQR 0-1.0)
same,Median tenacity,"[2]; postoperative day 10, 40 mg/kg daily orogastric gavage for 10 days, n = 18, P vs control 0.068 (Table 3), 0.68, listed as sunitinib, 40 mg/kg",0.0 (IQR 0.0-1.0)
same,Adhesion free mice,"[2]; postoperative day 10, number of mice out of n = 18, 40 mg/kg daily for 10 days",6
same,mice completely adhesion-free,"[2]; postoperative day 10, six of 18 mice, 40 mg/kg daily for 10 days",33.3%
same,Total score,"[2]; postoperative day 10, 40 mg/kg daily gavage for 10 days, n = 18, P=0.002, 40 mg/kg",2.0 (IQR 0-5.0)
same,Total score,"[2]; postoperative day 10, 40 mg/kg daily gavage for 10 days, n = 18, P=0.002, listed as sunitinib, 40 mg/kg",2.0 (IQR 0.0-5.0)
same,long-term intra-abdominal adhesion formation compared with control,"[2]; postoperative day 30, P=0.049",significantly decreased
same,long-term intra-abdominal adhesion formation compared with control,"[2]; postoperative day 30, P=0.049, listed as sunitinib",decreased
same,adhesion prevention vs vector only control,"[3]; 7 week old male C57BL/6 mice, Table 1 study, P=0.021",significantly prevention adhesion formation
same,comments,"[3]; observation on individual mouse at scoring, 40 mg/kg/day, 10 days",Looked good
same,Tenacity,"[3]; score of individual mouse, 0 (none) to 4 (lysed with sharp dissection), 40 mg/kg/day in methylcellulose, daily for 10 days from day before operation, scored after 10 days, listed as SU11248, 40 mg/kg/day",1 and 0 (3×) and 2
same,Cecal adhesions,"[3]; score of individual mouse, 0 (none) to 4 (lysed with sharp dissection), 40 mg/kg/day, 10 days, listed as SU11248, 40 mg/kg/day",2 (2×) and 0 (2×) and 1
same,Extent,"[3]; score of individual mouse, percent of patch covered: 0% (0), <25% (1), 25 to 50% (2), 50 to 75% (3), >75% (4), 40 mg/kg/day, 10 days, listed as SU11248, 40 mg/kg/day",3 (2×) and 0 (3×)
same,Total,"[3]; total adhesion score of individual mouse, sum of 3 scores, 0-12, 40 mg/kg/day, 10 days, treated vs untreated P=0.021, listed as SU11248, 40 mg/kg/day",6 and 2 and 0 and 1 and 5

# From patent US20100222371A1, “PREVENTION OF SURGICAL ADHESIONS” (CHILDREN'S MEDICAL CENTER CORPORATION, priority 2008, published 2010)
